Test results from US11486880B2, “Method of measuring harshness of a surfactant” (Conopeo, Inc., priority 2018, dated 2022).

Tested on: Zein protein
Experiment: Harshness of surfactant by dye release from solid Zein protein-Coomassie Blue R dye complex (CIE L*a*b colour change)
Design: species or system corn
Conditions: 10 wt % surfactant dilution; disc of protein-dye complex soaked 15 minutes; decrease in b* between first and second colour measurement; lower b = harsher; three replicates
Description: Zein powder (10 wt %) and Coomassie Blue R dye (0.1%) were added to a glass jar, and made up to 100 wt % with 90:10 aqueous ethanol (90 ethanol: 10 water). The mixture was left to disperse with stirring for 12 hours to produce protein-dye complex solution.
2 g of the protein-dye complex solution was added to four petri dishes and dried overnight under ambient conditions. The dried discs of protein-dye complex were then removed from the petri dishes and stored until required.
Dilutions (10 wt %) of four surfactants were prepared and a first colour measurement of each dilution was taken using CIEL*a*b on a Konica Minolta spectrometer.
A disc of protein-dye complex was added to each surfactant dilution, and soaked for 15 minutes. A second colour measurement was obtained of the resulting solutions. The decrease in b* value between the first and second colour measurement indicated the increase in blue colour. The lower the b value the ‘bluer’ the sample and the harsher the formulation. Three samples from each surfactant solution were measured as replicates.

Row | Compound | Average Δb*
1 | CCCCCCCCCCCCOS(=O)(=O)[O-].[Na+] [SDS] | −49.465
2 | CCCCCCCCCCO[C@@H]1O[C@H](CO)[C@@H](O)[C@H](O)[C@H]1O [Decyl Glucoside] | −11.2625
